Values after ≈ are worked out from the molar mass of the structure shown. Read-outs that look alike come from different tables or passages of the source.
Columns and labels:
[1] = Resazurin assay for cytotoxicity in HepG2 cells; format: cell-based, human; details: human, HepG2 cells; HepG2 cell line, 72 h, resazurin
Method: HepG2 cells were trypsinized, counted, and distributed in a 96-well plate at a density of 30,000 cells per well (180 μL). The plate was incubated at 37 °C and 5% CO2 for 24 h. Following incubation, 20 μL of serial dilutions of the tested compounds were added to the wells, with concentrations ranging from 30 to 0.47 μM. The plate was incubated for an additional 72 h at 37 °C and 5% CO2. Untreated cells served as positive controls, while wells containing only medium were used as negative controls. Postincubation, microscopy was employed to determine the highest compound concentration for treatment results. […] Concentration–response curves were generated, and half-maximal inhibitory concentration (CC50) values were determined using nonlinear regression analysis.

Rat hepatocyte stability = format: in vitro ADME; details: rat hepatocyte stability
Method: The reaction was terminated with the addition of ice-cold MeCN at designated time points. The samples were then centrifuged (4200 rpm) for 20 min at 20 °C, and the supernatant was half diluted in water and then analyzed using LCMS/MS. The % parent compound remaining, half-life (t 1/2), and clearance (CLint) were calculated using standard methodology. The experiment was carried out in duplicate. Diltiazem, 7-Ethoxy Coumarin, Propranolol, and Midazolam were used as reference standards.

[2] = Human liver microsome stability; format: in vitro ADME; details: human, pooled human liver microsomes, human microsomal intrinsic clearance; read-out: hMics, human microsome Clint
Method: A solution of the test compounds in phosphate buffer solution (1 μM) was incubated in pooled human or mouse liver microsomes (0.5 mg/mL) for 0, 5, 20, 30, 45, and 60 min at 37 °C in the presence and absence of an NADPH regeneration system (NRS). The tests were conducted by […], India. The reaction was terminated with the addition of ice-cold acetonitrile, containing a […] standard, at designated time points. The sample was centrifuged (4200g) for 20 min at 20 °C and the supernatant was diluted by half in water and then analyzed by LC-MS/MS. The % parent compound remaining, half-life (t 1/2) and clearance (CLint) were calculated using standard methodology. The experiment was carried out in duplicate. Verapamil, diltiazem, phenacetin, and imipramine were used as reference standards.

[3] = test system: P. falciparum 3D7 strain (Pf3D7); assay: Antiplasmodial activity against P. falciparum 3D7 blood-stage parasites (SYBR Green, 72 h); format: cell-based, Plasmodium falciparum; details: for IC50: Plasmodium falciparum; for Pf3D7-IC50 compared to 6a: regio-isomers compared to 6a
[4] = eLogD at pH 7.4, miniaturized shake flask method; format: physicochemical; details: 1-octanol/PBS (1:1, v/v), pH 7.4, pH 7.4, miniaturized shake flask method
Method: eLogD at pH 7.4 was determined using a miniaturized shake flask method. A solution of a presaturated mixture of 1-octanol and phosphate-buffered saline (PBS) (1:1, v/v) and the test compound (75 μM) was incubated at 25 °C with constant shaking (850 rpm) for 2h. After incubation, the organic and aqueous phases were separated, and samples of each phase were transferred to a plate for dilution. […] The samples were quantitated using LC-MS/MS. The experiment was carried out in duplicate. Propranolol, Amitriptyline, and Midazolam were used as reference standards.

[5] = Kinetic solubility at pH 7.4; format: physicochemical; details: phosphate-buffered saline, 25 °C, pH 7.4, aqueous buffer, kinetic from dmso stock; read-out: Kinetic solubility (Sol)
Method: Kinetic solubility assay was performed using UV–vis detection. […] The samples were filtered using a multiscreen solubility filter plate. The filtrate was diluted by 50% with MeCN. A five-point linearity curve was prepared in PBS/MeCN (1:1, v/v) at 200, 150, 75, 25, and 2.5 μM. Blank, linearity, and test samples (n = 2) were transferred to a UV-readable plate, and the plate was scanned for absorbance. Best-fit calibration curves were constructed using the calibration standards and used to determine the test sample solubility. The experiment was carried out in duplicate. Diethylstilbestrol, Haloperidol, and Diclofenac Sodium were used as reference standards.

P. falciparum Dd2 strain = assay: Antiplasmodial activity against resistant P. falciparum Dd2; format: cell-based; details: Plasmodium falciparum, 3D7 / DD2; resistant Dd2, in parallel with 3D7; read-out: IC50^Dd2 ± SD
P. falciparum K1 strain = assay: Antiplasmodial activity against resistant P. falciparum K1; format: cell-based; details: Plasmodium falciparum, 3D7 / K1; resistant K1, in parallel with 3D7; read-out: IC50^K1 ± SD
[6] = 3D7, 72 h, 3D7 strain, 72 h, SYBR Green, read-out: Pf3D7-IC50
[7] = 3D7 / DD2, sensitive 3D7, in parallel with K1 and Dd2, read-out: IC50^3D7 ± SD

Row | SMILES | R Heps (Clint) (Rat hepatocyte stability) | microsomal CLint at 1 μM [2] | IC50 [3, 6] | logD at 2 h [4] | solubility kinetic at 2 h [5] | further results
1 | O=C(c1cc2cc(Cl)ccc2[nH]1)N(Cc1cccnc1)C[C@@H]1CCNC1 [6a (R), 5-Chloro-N-(3-pyridylmethyl)-N-[[(3R)-pyrrolidin-3-yl]methyl]-1H-indole-2-carboxamide] | 8 μL/min/10^6 | 10 µL/min/mg | 1 ± 0.2 µM | 0.7 | 196 µM (≈ 72.3 µg/mL) | CC50 at 72 h [1]: > 30 µM
2 | O=C(c1cc2cc(Cl)ccc2[nH]1)N(Cc1cccnc1)C[C@H]1CCNC1 [6a (S), 5-Chloro-N-(3-pyridylmethyl)-N-[[(3S)-pyrrolidin-3-yl]methyl]-1H-indole-2-carboxamide] | 12 μL/min/10^6 | 3 µL/min/mg | 2 ± 0.4 µM | 0.7 | 196 µM (≈ 72.3 µg/mL) | CC50 at 72 h [1]: > 30 µM
3 | O=C(c1cc2cc(Cl)ccc2[nH]1)N(Cc1cccnc1)CC1CCOC1 (centres unmarked) [Compound 5r, 5-Chloro-N-(pyridin-3-ylmethyl)-N-((tetrahydrofuran-3-yl)methyl)-1H-indole-2-carboxamide] |  |  | > 10 µM |  |  | 
4 | O=C1CC(CN(Cc2cccnc2)C(=O)c2cc3cc(Cl)ccc3[nH]2)CN1 (centres unmarked) [Compound 5s, 5-Chloro-N-[(5-oxopyrrolidin-3-yl)methyl]-N-(3-pyridylmethyl)-1H-indole-2-carboxamide] |  |  | > 10 µM |  |  | 
5 | O=C(c1cc2ccccc2[nH]1)N(Cc1cccnc1)CC1CCNC1 (centres unmarked) [Compound 6b, N-(3-Pyridylmethyl)-N-(pyrrolidin-3-ylmethyl)-1H-indole-2-carboxamide] |  |  | 8.3 ± 0.2 µM |  |  | 
6 | O=C(c1cc2cccc(Cl)c2[nH]1)N(Cc1cccnc1)CC1CCNC1 (centres unmarked) [Compound 6c, 7-Chloro-N-(3-pyridylmethyl)-N-(pyrrolidin-3-ylmethyl)-1H-indole-2-carboxamide] | 60 μL/min/10^6 | 4 µL/min/mg | 2.2 ± 0.3 µM | 0.2 | > 1000 µM | IC50 (P. falciparum Dd2 strain): 8.2 ± 0.3 µM; IC50 [3, 7]: 2.3 ± 0.6 µM; IC50 (P. falciparum K1 strain): 4.9 ± 0.6 µM
7 | O=C(c1cc2cc(F)ccc2[nH]1)N(Cc1cccnc1)CC1CCNC1 (centres unmarked) [Compound 6e, 5-Fluoro-N-(3-pyridylmethyl)-N-(pyrrolidin-3-ylmethyl)-1H-indole-2-carboxamide] | 32 μL/min/10^6 | 7 µL/min/mg | 8.8 ± 0.1 µM | -0.1 | > 1000 µM | 
8 | Cc1c(C(=O)N(Cc2cccnc2)CC2CCNC2)[nH]c2ccc(Cl)cc12 (centres unmarked) [Compound 6g, 5-Chloro-3-methyl-N-(3-pyridylmethyl)-N-(pyrrolidin-3-ylmethyl)-1H-indole-2-carboxamide] |  |  | 5.8 µM |  |  | IC50 (P. falciparum Dd2 strain): 9 ± 0.7 µM; IC50 [3, 7]: 4.2 ± 0.5 µM; IC50 (P. falciparum K1 strain): 6.3 ± 0.3 µM
9 | O=C(c1c[nH]c2ccc(Cl)cc12)N(Cc1cccnc1)CC1CCNC1 (centres unmarked) [Compound 6h, 5-Chloro-N-(3-pyridylmethyl)-N-(pyrrolidin-3-ylmethyl)-1H-indole-3-carboxamide] |  |  | > 10 µM |  |  | 
10 | O=C(c1nc2cc(Cl)ccc2[nH]1)N(Cc1cccnc1)CC1CCNC1 (centres unmarked) [Compound 6i, 5-Chloro-N-(3-pyridylmethyl)-N-(pyrrolidin-3-ylmethyl)-1H-benzimidazole-2-carboxamide] |  |  | > 10 µM |  |  | 
11 | O=C(c1cccc(Cl)c1)N(Cc1cccnc1)CC1CCNC1 (centres unmarked) [Compound 6j, 3-Chloro-N-(pyridin-3-ylmethyl)-N-(pyrrolidin-3-ylmethyl)benzamide] |  |  | > 25 µM |  |  | 
12 | O=C(c1cc2cc(Cl)ccc2[nH]1)N(Cc1ccccc1)CC1CCNC1 (centres unmarked) [Compound 6k, N-Benzyl-5-chloro-N-(pyrrolidin-3-ylmethyl)-1H-indole-2-carboxamide] |  |  | 6.7 ± 0.3 µM |  |  | 
13 | O=C(c1cc2cc(Cl)ccc2[nH]1)N(Cc1ccncc1)CC1CCNC1 (centres unmarked) [Compound 6l, 5-Chloro-N-(4-pyridylmethyl)-N-(pyrrolidin-3-ylmethyl)-1H-indole-2-carboxamide] |  |  | 12.8 ± 0.8 µM |  |  | Pf3D7-IC50 compared to 6a [3]: > 10 fold
14 | O=C(c1cc2cc(Cl)ccc2[nH]1)N(Cc1ccccn1)CC1CCNC1 (centres unmarked) [Compound 6m, 5-Chloro-N-(2-pyridylmethyl)-N-(pyrrolidin-3-ylmethyl)-1H-indole-2-carboxamide] |  |  | 14.1 ± 0.6 µM |  |  | Pf3D7-IC50 compared to 6a [3]: > 10 fold
15 | O=C(c1cc2cc(Cl)ccc2[nH]1)N(Cc1cnccn1)CC1CCNC1 (centres unmarked) [Compound 6n, 5-Chloro-N-(pyrazin-2-ylmethyl)-N-(pyrrolidin-3-ylmethyl)-1H-indole-2-carboxamide] |  |  | > 10 µM |  |  | 
16 | O=C(c1cc2cc(Cl)ccc2[nH]1)N(Cc1ccc(C(F)(F)F)nc1)CC1CCNC1 (centres unmarked) [Compound 6o, 5-Chloro-N-(pyrrolidin-3-ylmethyl)-N-[[6-(trifluoromethyl)-3-pyridyl]methyl]-1H-indole-2-carboxamide] | 10 μL/min/10^6 | 3 µL/min/mg | 4.3 ± 0.2 µM | 1.5 | 883 µM (≈ 386 µg/mL) | 
17 | CS(=O)(=O)c1ccc(CN(CC2CCNC2)C(=O)c2cc3cc(Cl)ccc3[nH]2)cn1 (centres unmarked) [Compound 6p, 5-Chloro-N-[(6-methylsulfonyl-3-pyridyl)methyl]-N-(pyrrolidin-3-ylmethyl)-1H-indole-2-carboxamide] |  |  | > 10 µM |  |  | 
18 | CNCCN(CC1CCNC1)C(=O)c1cc2cc(Cl)ccc2[nH]1 (centres unmarked) [Compound 6q, 5-Chloro-N-[2-(methylamino)ethyl]-N-(pyrrolidin-3-ylmethyl)-1H-indole-2-carboxamide] |  |  | > 10 µM |  |  | 
19 | CNCCN(Cc1cccnc1)C(=O)c1cc2cc(Cl)ccc2[nH]1 [Compound 6u, 5-Chloro-N-[2-(methylamino)ethyl]-N-(3-pyridylmethyl)-1H-indole-2-carboxamide] | 29 μL/min/10^6 | 20 µL/min/mg | 1.8 ± 0.2 µM | 2.6 | 148 µM (≈ 50.7 µg/mL) | 
20 | O=C(c1cc2cc(Cl)ccc2[nH]1)N(Cc1cccnc1)C1CCNC1 (centres unmarked) [Compound 6v, 5-Chloro-N-(3-pyridylmethyl)-N-pyrrolidin-3-yl-1H-indole-2-carboxamide] | 17 μL/min/10^6 | < 3 µL/min/mg | 0.57 ± 0.07 µM | 0.9 | > 1000 µM | 
21 | O=C(c1cc2cc(Cl)ccc2[nH]1)N(Cc1cccnc1)CC1CCNCC1 [Compound 6w, 5-Chloro-N-(4-piperidylmethyl)-N-(3-pyridylmethyl)-1H-indole-2-carboxamide] | 9 μL/min/10^6 | < 3 µL/min/mg | 0.9 ± 0.1 µM | 0.5 | > 1000 µM | 
22 | CN1CCC(CN(Cc2cccnc2)C(=O)c2cc3cc(Cl)ccc3[nH]2)C1 (centres unmarked) [Compound 7a, 5-Chloro-N-[(1-methylpyrrolidin-3-yl)methyl]-N-(pyridin-3-ylmethyl)-1H-indole-2-carboxamide] | 28 μL/min/10^6 | 20 µL/min/mg | 0.46 ± 0.05 µM | 1.6 | 190 µM (≈ 72.8 µg/mL) | IC50 (P. falciparum Dd2 strain): 2.2 ± 0.3 µM; IC50 [3, 7]: 0.8 ± 0.2 µM; IC50 (P. falciparum K1 strain): 1.2 ± 0.3 µM

Source: publication PMC12531871, “Indole-2-carboxamides Optimization for Antiplasmodial Activity” (ACS Bio & Med Chem Au, 2025)
